One series relates to tumors. The experiment in a line: Synergy with chemotherapeutic agents. The following applies: often inducing complete regression of tumors. The format is in vivo.
The nature of series [1]: Long term stability of ON 01910.Na 75 mg/mL in 100% PEG-400 for clinical use (HPLC). The class given is physicochemical. The procedure: ON 01910.Na IV solution was manufactured at a concentration of 75 mg/mL in 100% PEG-400. The finished product consisted of 3 mL of drug product aseptically filled into presterilized 5 mL vials. The manufacturing was in compliance with current Good Manufacturing Practices regulations.
(a) HPLC—Chromatography is performed using a Phenomenex Luna C-18 (2), 5 micron (4.6 mm×250 mm, PN 00G-4252-E0) column at ambient conditions. The mobile phase used is 60%-0.1% trifluoroacetic acid in water; 40% acetonitrile. The flow rate is set at 2.0 ml/min. Injection volume is 50 μL. Detection is accomplished by means of a UV/VIS detector at 230, 254, and 320 nm. Instrument control and data acquisition is facilitated using a Waters Millennium (V 2.15) software package. The external calibration is obtained using ON 01910.Na standard solutions prepared in 50:50 acetonitrile:water. This analytical method was validated.

Series [2] concerns Patients With Advanced Solid Tumors. Put plainly: Phase I dose escalation study, 2-hour intravenous infusion. The class given is in vivo, human. The procedure:
Safety and efficacy of this formulation, for example, is tested in a Phase I clinical study, at The Johns Hopkins Sidney Kimmel Cancer Center, Baltimore, Md., i.e., “Phase I Dose Escalation Study Of ON 01910.Na By 2-Hour Intravenous Infusion In Patients With Advanced Solid Tumors”. U.S. FDA IND #66,780. The objectives of this study include an identification of a maximum tolerated dose (MTD) and a recommended dose for further clinical studies. A further object of the study is to establish a safety profile, i.e., to observe any toxicities. The patients in this study have advanced solid tumors that have failed conventional treatments, or for which no approved therapy exists. An object of the study is particularly to observe efficacy (anti-cancer effects).
The patients are administered the preferred formulation described herein of the ON 01910.Na drug (properly diluted in intravenous solution) over a two hour period, twice per week, for three weeks. The patients are subsequently observed for […], to constitute a four week treatment cycle.
This study started with a single patient at the first starting dose level of 80 mg per patient. If there is no grade 2 or worse drug-related toxicity (side effects) observed in the first four week cycle, then another patient may be dosed at the next higher dose level. The first patient was dosed at 80 mg per patient on Aug. 3, 2004. […]

`COc1cc(OC)c(/C=C/S(=O)(=O)Cc2ccc(OC)c(NCC(=O)O)c2)c(OC)c1` [Compound 4, (E)-2,4,6-Trimethoxystyryl-3-(carboxymethylamino)-4-methoxybenzylsulfone]: in the series on tumors, the “synergy with chemotherapeutic agents” value was “strong synergy”.
With `COc1cc(OC)c(/C=C/S(=O)(=O)Cc2ccc(OC)c(NCC(=O)[O-])c2)c(OC)c1.[Na+]` [ON 01910.Na, (E)-2,4,6-trimethoxystyryl-3-carboxymethylamino-4-methoxybenzylsulfone], the shelf stability result in series [1] (75 mg per ml in 100% PEG-400) is on record as “shelf-stable for over one year”. For the same compound, in series [1] (100% PEG-400 formulation for clinical use), the long term stability result was “extremely stable”. For the same compound, the drug-related toxicity entry in series [2] (80 to 2080 mg per patient, 2 hour iv infusion, twice per week for three weeks, four week cycle) was “no grade 2 or worse toxicities”. Besides, in series [2] (iv 2 hour infusion, twice per week, for 3 weeks, ten days off), the dose safely administered was at least 2080 mg.

The values are drawn from patent US8063109B2, “Formulations for parenteral administration of (e)-2, 6-dialkoxystyryl 4-substituted benzylsulfones” (Onconova Therapeutics, Inc., priority 2004, dated 2011).
